For one compound, IC50 results are on record in patent US10130630B2, “BTK inhibitors” (MERCK SHARP & DOHME CORP., priority 2014, dated 2018).

Experiment [1] concerns adenosine uptake into HeLa cells. Briefly: [3H]Adenosine uptake assay in HeLa cells. Conditions: Homo sapiens, HeLa, 60 minutes uptake, read-out: ADU inhibition IC50 (adenosine uptake inhibition potency). In kind it is cell-based.
The target of experiment [2] is T1, BTK enzyme (full-length BTK, hBTK) (Homo sapiens, UniProt Q06187).
T1 construct: recombinant protein from baculovirus-transfected Sf9 cells: full-length BTK, 6HIS-tag cleaved; 6HIS (cleaved yes); made in house; host or cells: baculovirus-transfected Sf9 cells
T1 sequence (Q06187 whole entry): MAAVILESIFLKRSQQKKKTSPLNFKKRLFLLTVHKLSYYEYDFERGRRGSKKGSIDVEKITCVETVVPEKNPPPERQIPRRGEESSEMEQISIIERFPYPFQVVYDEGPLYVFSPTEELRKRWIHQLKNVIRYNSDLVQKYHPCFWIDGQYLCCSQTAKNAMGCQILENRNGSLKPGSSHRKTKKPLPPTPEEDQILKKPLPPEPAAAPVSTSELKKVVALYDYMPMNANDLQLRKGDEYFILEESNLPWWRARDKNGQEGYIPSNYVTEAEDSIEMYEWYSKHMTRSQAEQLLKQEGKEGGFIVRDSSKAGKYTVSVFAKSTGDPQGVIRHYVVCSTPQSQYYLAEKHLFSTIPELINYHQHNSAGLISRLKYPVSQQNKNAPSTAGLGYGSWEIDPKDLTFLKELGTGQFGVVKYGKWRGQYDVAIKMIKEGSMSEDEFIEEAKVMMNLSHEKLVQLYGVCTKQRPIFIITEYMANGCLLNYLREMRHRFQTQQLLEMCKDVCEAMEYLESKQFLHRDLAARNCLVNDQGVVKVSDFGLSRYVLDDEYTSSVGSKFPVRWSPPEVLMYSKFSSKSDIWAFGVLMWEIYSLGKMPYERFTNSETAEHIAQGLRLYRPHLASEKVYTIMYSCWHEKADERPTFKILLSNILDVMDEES
The experiment in a line: Btk enzyme activity assay (LANCE TR-FRET). The conditions noted are these: 50 pM hBTK, 25 μM ATP, 60 minute compound and enzyme incubation, read-out: BTK binding IC50. In kind it is biochemical. The procedure, abridged: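 Full-length human BTK from Sf9 cells (His-tag cleaved; 50 pM final) was preincubated 60 min with compound in pH 7.5 HEPES/MgCl2 buffer. Reaction then ran 120 min with 2 μM biotin-A5 peptide and 25 μM ATP, read by TR-FRET (Eu anti-pTyr/streptavidin-Dylight 650, 665/615 nm ratio). IC50 came from a 4-parameter fit.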
On the technique in general: In TR-FRET formats the signal depends on donor and acceptor labels being close together.

In the case of `CCOc1cc(C(=O)Nc2cc(C(F)(F)F)ccn2)ccc1-c1nc([C@H]2CC[C@@H]3CC4(CC4)C(=O)N3C2)n2ccnc(N)c12` [Compound 48, 4-{8-amino-3-[(6′S,8a′R)-3′-oxohexahydrospiro[cyclopropane-1,2′-indolizin]-6′-yl]imidazo[1,5-a]pyrazin-1-yl}-3-ethoxy-N-[4-(trifluoromethyl)pyridin-2-yl]benzamide], the IC50 came to 998 nM in experiment [1] and 1.19 nM in experiment [2].

By IC50 is commonly meant the concentration at which inhibition is half-maximal.
